Reference: US11851459B2, “Methods and uses of modulators of anaphase promoting complex (APC) activity for treating cancer” (University of Saskatchewan, priority 2018, dated 2023)

Tests used:
MDA-MB-231 cells = assay: Scratch assay, migration of MDA-MB-231 cells; type: cell-based, human
Procedure: A. An equal number of MDA-MB-231 TNBC cells were grown to confluence in 6 well plates. The cells were then treated with increasing doses of metformin (0, 1, 5 and 10 mM) and a scratch was made in the cell lawn creating a void. At the times shown the number of cell that migrated into the void were counted. The experiment was repeated twice. B. WT MDA-MB-231 cells and cells stably expressing the C43-4 plasmid were grown as in A. Control cells were left untreated, with other cells treated with the DMSO control, 1 uM DOX or 2.5 uM M2I-1. A void was created in the cell lawn and the number of cells that entered the void were scored as above. This experiment was repeated 4 times. This experiment was also repeated 4 times in an independently generated stable C43-4 cell line with similar results. The error of the mean is shown. C. WT and MDA-MB-231 cells stably expressing the C2-4B peptide plasmid were used for the scratch assay as described above. D. WT and MDA-MB-231 cells stably expressing the C13-3 peptide plasmid were used for the scratch assay as described above. The experiments in C and D were only performed once.
Assays using WT and C43-4 expressing cells have been done 4 times. Assays using C13-3 and C2-4B cells have only been conducted once. Metformin treated cells have been used twice. For scratch assays, a scratch is made down a confluent plate of cells, leaving a void. The number of cells that migrate back into the void over time is determined.

[1] = test system: APC (substrates Cyclin B, Securin, Cdc20, HURP); assay: APC substrate westerns in MDA-MB-231 cells expressing peptides; type: cell-based, human
Procedure: A. Transient transfection of the C43-4 peptide plasmid into human triple negative MDA-MB-231 breast cancer cells followed by Western blot analysis of lysates against Cyclin B, Securin and Cdc20 showing enhanced protein loss. B. Cells in A were treated with DOX (1 uM) for 48 hrs with cell viability measured using an MTT assay kit. The experiment was done in triplicate with standard error of the means shown.
A. Stable integration of C43-4 in MDA-MB-231 cells was established by selection of transfected cells on Geneticin for 7 days. Westerns against APC substrates show APC activation. B. Cells in A were treated with DOX (1 uM) for 48 hrs with cell viability measured using an MTT assay kit. Mean and SEM of 3 biological repeats.
A. TNBC MDA-MB-231 cells stably expressing APC binding peptides activate the APC. Cells were grown to confluence and then used to prepare protein lysates. The lysates were used to measure levels of the APC substrate CDC20, which will be reduced if the APC is activated. Cells stably expressing the pcDNA empty vector were used as a control. B. In a similar experiment, MDA-MB-231 cells stably expressing the APC binding peptides shown, or the empty vector control, were used to measure protein levels of the APC substrate HURP using Westerns. C. Triplicate blots as in B were scanned, normalized to tubulin and plotted. Error of the mean is shown. Significant changes are indicated. D. MDA-MB-231 cells stably expressing the empty pcDNA vector, or the C43-4 and C13-3 APC binding peptides, were treated with 1 μM Doxorubicin for 24 hrs. Cell viability was measured using an MTT viability assay.
The C43-4 peptide sequence was cloned into the human expression vector pcDNA. This construct was transiently, and stably, expressed in human breast cancer cell line MDA-MB-231. […] In 231 cells, which are triple negative, aggressive and somewhat resistant to Doxorubicin, the transiently and stably transfected C43-4 peptide resensitized them to DOX treatment (FIGS. 22B and 23B).
In FIG. 26B, MDA-MB-231 cells were also stably transfected with the peptides C1-8, C2-4B, C3-1B, and C9-5. Levels of the APC substrate HURP were measured in lysates prepared from these cells. […] The empty vector pcDNA was also stably expressed in 231 cells and used as a control.

apc10Δ cells = assay: apc10Δ temperature sensitive growth, spot dilutions; type: cell-based, yeast; settings: 30 and 34° C., weakly expressed on glucose
From the text: A. Yeast 2-hybrid (Y2H) cells expressing the APC subunit bait and the galactose inducible Apc10 peptide prey grown on glucose or galactose. Cells co-expressing the Apc5 or Apc10-bait and Apc10 aptamer-prey vectors were spotted onto the appropriate media, in the presence or absence of galactose (the aptamers are Gal inducible), to confirm Y2H interactions. Growth on trp^− his^− media ensures both plasmids are maintained. A Y2H interaction will drive expression of the ADE2 gene, allowing growth on ade^− media. B. Aptamers that bind Apc10 can suppress APC mutant phenotypes. Spot dilutions of apc10Δ cells expressing an empty vector control or the one of 6 Apc10 aptamers tested. Log phase cells were 10-fold serially diluted and spotted onto plates containing either 2% glucose or 2% galactose. The plates were then incubated at 30° C. (permissive temperature) and 34° C. (restrictive stress). C. Peptides identified as binding to the yeast Apc10 APC subunit using the Y2H screen increase growth of wildtype (WT) cells. […]
The six peptide expressing vectors were transformed into apc10Δ cells and assessed for temperature sensitive growth. […]
Over 100 peptides that bound either Apc5 or Apc10 were recovered from millions screened. […] Vectors expressing these 6 peptides were transformed into WT or APC mutant cells and assessed for ts growth.

WT cells = assay: Stationary phase WT cells spot diluted (chronological lifespan / stress resistance); type: cell-based, yeast; settings: FIG. 2B; for stress resistance: WT cells grown to stationary phase, spot diluted; for chronological lifespan: WT cells
Procedure: A. apc5^CA (temperature sensitive allele) cells were transformed with C43-4 or an empty vector. Cells grown overnight in 2% Glu were struck onto 2% Glucose plates and used for the yeast RLS assay. From the top left hand corner of the figures, top line is WT +empty vector, middle line is apc5^CA+C43-4 peptide and bottom line is apc5^CA+empty vector. B. WT cells transformed with C43-4, C2-4B or an empty vector were grown to stationary phase in 2% Glu media, then after 2 days spot diluted onto 2% Glu or 2% Gal to induce expression of the peptides.

[2] = transiently transfected MDA-MB-231

Sequence	metastatic potential / in vitro migration (MDA-MB-231 cells)	levels of the APC substrate CDC20 ([1]; MDA-MB-231 stably expressing peptides)	protein levels of CyclinB ([1]; stably transfected MDA-MB-231)	APC substrate Cdc20 [1, 2]	APC substrate Cyclin B [1, 2]	APC substrate Securin [1, 2]	apc10Δ growth phenotype (apc10Δ cells)	stress resistance (WT cells)	chronological lifespan (WT cells)	levels of the APC substrate HURP ([1]; MDA-MB-231 stably transfected, normalized to tubulin)
NGSSHNDLRVRRLTLISRLC [C43-4]	inhibit the in vitro migration	reduce levels	reduced protein levels	reduced	reduced	reduced	suppressed the apc10Δ growth phenotype	increase stress resistance	improved chronological lifespan	
RMPQWWQWMWV [C2-4B]	inhibit the in vitro migration						suppressed the apc10Δ growth phenotype	increase stress resistance	improved chronological lifespan	Only C1-8 did not reduce HURP levels
